Source: BindingDB's records for doi:10.1021/bi9016928 (Uppsala University, 2009)
Starred links: 1 amine or outer side, 2 acyl side, 3 side chain; linkers in the order of their positions; H or OH if unused. Non-standard residues stand in square brackets, D forms with d. Residues, ends and D or L forms follow the SMILES beside them. ξ: configuration not given here. Dip = N[C@H](C(=O)O)C(c1ccccc1)c1ccccc1; 2Nal = N[C@@H](Cc1ccc2ccccc2c1)C(=O)O; Cha = N[C@@H](CC1CCCCC1)C(=O)O; Ile(3ξ) = CCC(C)[C@H](N)C(=O)O; Chg = N[C@H](C(=O)O)C1CCCCC1; Suc = O=C(CCC(=O)[*:2])[*:1]

Each molecule was assayed against T1, Genome polyprotein (Hepacivirus hominis, UniProt Q04045) (assay: Competitive Inhibition Assay).
T1 sequence (Q04045 whole entry): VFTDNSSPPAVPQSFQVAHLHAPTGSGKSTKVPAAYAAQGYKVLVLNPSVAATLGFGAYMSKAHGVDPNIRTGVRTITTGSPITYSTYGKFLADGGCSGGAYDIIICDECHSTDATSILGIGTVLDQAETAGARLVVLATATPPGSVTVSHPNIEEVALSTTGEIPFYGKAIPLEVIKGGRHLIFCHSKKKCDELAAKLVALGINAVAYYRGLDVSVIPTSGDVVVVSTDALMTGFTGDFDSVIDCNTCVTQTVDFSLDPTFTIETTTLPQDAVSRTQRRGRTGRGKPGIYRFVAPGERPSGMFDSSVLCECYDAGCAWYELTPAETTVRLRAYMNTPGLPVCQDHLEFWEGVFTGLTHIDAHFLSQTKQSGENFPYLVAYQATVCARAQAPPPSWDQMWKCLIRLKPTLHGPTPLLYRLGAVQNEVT
Method: Analysis of the inhibition activation of flNS3 by the inhibitors was performed with the standard assay, allowing the inhibitor to preincubate with NS3 and NS4 for 15 min. prior to addition of substrate.

| SMILES | Ki |
| --- | --- |
| CCC[C@H](NC(=O)[C@@H]1C[C@@H](Oc2cc(-c3ccccc3)nc3cc(OC)ccc23)CN1C(=O)[C@@H](NC(=O)OC(C)(C)C)C(C)C)C(=O)NS(=O)(=O)c1ccccc1 [NS3 Protease Inhibitor, 8] | 170 nM |
| COc1ccc2c(O[C@@H]3C[C@H]4C(=O)N[C@]5(C(=O)O)C[C@H]5/C=C\CCCCC[C@H](NC(=O)OC5CCCC5)C(=O)N4C3)cc(-c3csc(NC(C)C)n3)nc2c1 | 0.12 nM |
| C=CC1C[C@]1(NC(=O)[C@@H]1C[C@@H](Oc2cc(-c3ccccc3)nc3cc(OC)ccc23)CN1C(=O)[C@@H](NC(=O)OC(C)(C)C)C(C)C)C(=O)O (stereo partly specified) [NS3 Protease Inhibitor, 9] | 15 nM |
| CCC(C)[C@H](NC(=O)[C@@H](NC(=O)CCC(=O)O)C1CCCCC1)C(=O)N[C@@H](CC1CCCCC1)C(=O)N[C@@H](CS)C(=O)O (stereo partly specified) [NS3 Protease Inhibitor, 1] (Suc-[Chg][Ile(3ξ)][Cha]C-OH) | 330 nM |
| C=CC1C[C@]1(NC(=O)[C@@H]1C[C@@H](Oc2cc(-c3ccccc3)nc3cc(OC)ccc23)CN1C(=O)[C@@H](NC(=O)OC(C)(C)C)C(C)C)C(=O)NS(=O)(=O)c1ccccc1 (stereo partly specified) [NS3 Protease Inhibitor, 10] | 0.22 nM |
| COc1ccc2c(O[C@@H]3C[C@@H](C(=O)NC4(C(=O)O)CC4)N(C(=O)[C@@H](NC(=O)OC(C)(C)C)C(C)C)C3)cc(-c3ccccc3)nc2c1 [NS3 Protease Inhibitor, 6] | 1100 nM |
| CC(=O)N[C@H](C(=O)N[C@@H](CCC(=O)O)C(=O)N[C@@H](Cc1ccc2ccccc2c1)C(=O)N[C@@H](CS)C(=O)O)C1CCCCC1 [NS3 Protease Inhibitor, 5] (Ac-[Chg]E[2Nal]C-OH) | 500 nM |
| O=C(O)CCC(=O)N[C@H](C(=O)N[C@@H](CCC(=O)O)C(=O)N[C@@H](Cc1ccc2ccccc2c1)C(=O)N[C@@H](CS)C(=O)O)C1CCCCC1 [NS3 Protease Inhibitor, 2] (Suc-[Chg]E[2Nal]C-OH) | 180 nM |
| C=CC1C[C@]1(NC(=O)[C@@H](NC(=O)C(NC(=O)OC(C)(C)C)C(C)C)c1ccc(Oc2cc(-c3ccccc3)nc3cc(OC)ccc23)cc1)C(=O)NS(=O)(=O)c1ccccc1 (stereo partly specified) [NS3 Protease Inhibitor, 7] | 290 nM |
| O=C(O)CCC(=O)N[C@H](C(=O)N[C@@H](CCC(=O)O)C(=O)N[C@@H](CCC(=O)O)C(=O)N[C@@H](CS)C(=O)O)C(c1ccccc1)c1ccccc1 [NS3 Protease Inhibitor, 3] (Suc-[Dip]EEC-OH) | 520 nM |
| O=C(O)CCC(=O)N[C@H](C(=O)N[C@@H](CCC(=O)O)C(=O)N[C@@H](CC1CCCCC1)C(=O)N[C@@H](CS)C(=O)O)C1CCCCC1 [NS3 Protease Inhibitor, 4] (Suc-[Chg]E[Cha]C-OH) | 150 nM |
